{
  "source": "paper PMC8063233",
  "about": "(The Journal of Clinical Endocrinology and Metabolism, 2020)",
  "assay": "Plasma pharmacokinetics on day 7 of each treatment period",
  "type": "in vivo, human",
  "settings": "day 7, verinurad + febuxostat with placebo (n = 36)",
  "data": [
    {"smiles": "CC(C)(Sc1ccncc1-c1ccc(C#N)c2ccccc12)C(=O)O", "note": "[Verinurad, verinurad]", "values": [
      {"measurement": "tmax, Median (min-max)", "result": "4.00 (3.00-8.08) h"}
    ]}
  ]
}
